Experiment [1] concerns the target T1, Recombinant STAT3 protein (STAT3 (G127-I722)) (Homo sapiens, UniProt P40763).
T1 construct: Recombinant STAT3 protein (STAT3 (G127-I722))
In words: STAT3 Fluorescence Polarization (FP) Assay. In kind it is binding. To be noted: STAT3 (G127-I722) 25 nM, probe 5-FAM-GpYLPQTV-NH2 2 nM, 45-minute incubation; read-out: STAT3 (FP assay IC50 class). The method in brief: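 Compounds in serial dilution receive a premix of STAT3 (G127-I722, 25 nM) and fluorescent phosphotyrosine peptide 5-FAM-GpYLPQTV-NH2 (2 nM) at pH 7.4. After 45 min at room temperature, FP is measured and IC50 derived by nonlinear regression.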
Background: Polarisation of emitted light reports the rotation of a fluorescent probe.

Experiment [2] has as its target T2, Recombinant STAT6 protein (STAT6 (W123-T658)) (Homo sapiens, UniProt P42226).
T2 construct: Recombinant STAT6 protein (STAT6 (W123-T658))
T2 sequence (P42226 123-658): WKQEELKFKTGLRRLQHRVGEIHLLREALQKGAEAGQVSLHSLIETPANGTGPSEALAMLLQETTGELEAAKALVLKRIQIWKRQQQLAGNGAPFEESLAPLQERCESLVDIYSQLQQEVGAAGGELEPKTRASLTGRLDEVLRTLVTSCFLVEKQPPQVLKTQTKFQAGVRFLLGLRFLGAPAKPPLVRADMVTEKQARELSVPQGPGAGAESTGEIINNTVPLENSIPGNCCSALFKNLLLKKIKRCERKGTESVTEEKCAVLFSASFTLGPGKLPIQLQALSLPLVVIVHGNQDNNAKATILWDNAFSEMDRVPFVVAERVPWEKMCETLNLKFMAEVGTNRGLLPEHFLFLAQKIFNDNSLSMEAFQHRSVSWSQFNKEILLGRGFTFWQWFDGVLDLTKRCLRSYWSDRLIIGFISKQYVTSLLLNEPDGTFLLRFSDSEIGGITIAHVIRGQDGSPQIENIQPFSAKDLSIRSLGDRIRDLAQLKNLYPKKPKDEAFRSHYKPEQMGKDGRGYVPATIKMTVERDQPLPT
In words: STAT6 Fluorescence Polarization (FP) Assay. In kind it is binding. To be noted: STAT6 (W123-T658) 250 nM, probe 5-FAM-Ap[…]-NH2 2 nM, 45-minute incubation; read-out: STAT6 (FP assay IC50 class). The method in brief:
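Probe displacement format: serially diluted compounds incubated 45 min at room temperature with 2 nM fluorescent phosphopeptide and 250 nM STAT6 (W123-T658) in pH 7.4 HEPES buffer, 1% DMSO final. Polarization signal plotted against log concentration, IC50 fitted by nonlinear regression.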

Bounds are passed on as bounds.

T1 sequence (P40763 127-722): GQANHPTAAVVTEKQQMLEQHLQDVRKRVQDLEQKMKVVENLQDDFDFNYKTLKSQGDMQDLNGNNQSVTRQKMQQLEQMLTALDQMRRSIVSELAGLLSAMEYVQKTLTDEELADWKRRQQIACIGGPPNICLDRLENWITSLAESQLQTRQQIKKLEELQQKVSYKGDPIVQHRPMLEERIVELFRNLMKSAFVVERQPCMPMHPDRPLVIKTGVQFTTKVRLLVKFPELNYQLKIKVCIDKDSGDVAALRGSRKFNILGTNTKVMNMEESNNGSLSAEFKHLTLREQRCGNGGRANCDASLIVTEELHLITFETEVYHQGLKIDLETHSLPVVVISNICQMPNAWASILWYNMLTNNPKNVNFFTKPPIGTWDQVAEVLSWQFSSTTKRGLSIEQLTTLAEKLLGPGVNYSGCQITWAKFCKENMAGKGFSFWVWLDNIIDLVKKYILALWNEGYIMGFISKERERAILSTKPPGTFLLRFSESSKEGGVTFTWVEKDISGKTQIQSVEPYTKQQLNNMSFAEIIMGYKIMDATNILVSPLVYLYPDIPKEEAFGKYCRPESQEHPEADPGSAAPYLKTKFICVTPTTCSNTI

`O=C(N[C@H]1CCC[C@H]2CC[C@@H](C(=O)N3CC(c4ccccc4F)C3)N2C1=O)c1cc2cc(C(F)P(=O)(O)O)ccc2s1` (stereo partly drawn) [Compound 565, (fluoro(2-(((3S,6S,9aS)-3-(3-(2-fluorophenyl)azetidine-1-carbonyl)-5-oxooctahydro-1H-pyrrolo[1,2-a]azepin-6-yl)carbamoyl)benzo[b]thiophen-5-yl)methyl)phosphonic acid]: the half-maximal inhibitory concentration (IC50) in experiment [1] lay in the range of 0.1 to 1 µM; in experiment [2], 3 to 30 µM.
With `O=C(N[C@H]1CCCC[C@H]2CC[C@@H](C(=O)N3CC(c4cnccc4F)C3)N2C1=O)c1cc2cc(CP(=O)(O)O)ccc2s1` [Compound 566, ((2-(((3S,6S,10aS)-3-(3-(4-fluoropyridin-3-yl)azetidine-1-carbonyl)-5-oxodecahydropyrrolo[1,2-a]azocin-6-yl)carbamoyl)benzo[b]thiophen-5-yl)methyl)phosphonic acid], the IC50 in experiment [1] was less than 0.1 µM; in experiment [2], 3 to 30 µM.
In the same order, the values of `COCC(=O)NC1(c2ccccn2)CN(C(=O)[C@@H]2CC[C@@H]3CCCC[C@H](NC(=O)c4cc5cc(C(F)P(=O)(O)O)ccc5s4)C(=O)N32)C1` (stereo partly drawn) [Compound 567, (fluoro(2-(((3S,6S,10aS)-3-(3-(2-methoxyacetamido)-3-(pyridin-2-yl)azetidine-1-carbonyl)-5-oxodecahydropyrrolo[1,2-a]azocin-6-yl)carbamoyl)benzo[b]thiophen-5-yl)methyl)phosphonic acid] are 0.1 to 1 µM and 3 to 30 µM.
`COCCNC1(c2ccccn2)CN(C(=O)[C@@H]2CC[C@@H]3CCCC[C@H](NC(=O)c4cc5cc(C(F)P(=O)(O)O)ccc5s4)C(=O)N32)C1` (stereo partly drawn) [Compound 568, (fluoro(2-(((3S,6S,10aS)-3-(3-((2-methoxyethyl)amino)-3-(pyridin-2-yl)azetidine-1-carbonyl)-5-oxodecahydropyrrolo[1,2-a]azocin-6-yl)carbamoyl)benzo[b]thiophen-5-yl)methyl)phosphonic acid]: the IC50 was less than 0.1 µM in experiment [1] and 3 to 30 µM in experiment [2].
As to `Cn1ccc(N2C(=O)N(C(=O)[C@@H]3CC[C@@H]4CCCC[C@H](NC(=O)c5cc6cc(C(F)P(=O)(O)O)ccc6s5)C(=O)N43)C3(CC3)C2=O)cc1=O` (stereo partly drawn) [Compound 569, (fluoro(2-(((3S,6S,10aS)-3-(6-(1-methyl-2-oxo-1,2-dihydropyridin-4-y1)-5,7-dioxo-4,6-diazaspiro[2.4]heptane-4-carbonyl)-5-oxodecahydropyrrolo[1,2-a]azocin-6-yl)carbamoyl)benzo[b]thiophen-5-yl)methyl)phosphonic acid], the values for the IC50 in experiment [1] and in experiment [2] were 1 to 10 µM and 0.3 to 3 µM, respectively.
Taken in the same sequence, the figures for `O=C(N[C@H]1CCCC[C@H]2CC[C@@H](C(=O)N3CC(c4ccccc4)CC34CC4)N2C1=O)c1ccc2cnc(CP(=O)(O)O)cc2c1` (stereo partly drawn) [Compound 570, ((6-(((3S,6S,10aS)-5-oxo-3-(6-phenyl-4-azaspiro[2.4]heptane-4-carbonyl)decahydropyrrolo[1,2-a]azocin-6-yl)carbamoyl)isoquinolin-3-yl)methyl)phosphonic acid] were 1 to 10 µM and 3 to 30 µM.
Regarding `O=C(N[C@H]1CCCC[C@H]2CC[C@@H](C(=O)N3CC(c4ccccc4)CC34CC4)N2C1=O)c1ccc2ccc(CP(=O)(O)O)nc2c1` (stereo partly drawn) [Compound 571, ((7-(((3S,6S,10aS)-5-oxo-3-(6-phenyl-4-azaspiro[2.4]heptane-4-carbonyl)decahydropyrrolo[1,2-a]azocin-6-yl)carbamoyl)quinolin-2-yl)methyl)phosphonic acid], the results for the IC50 in experiment [1] and in experiment [2] were 1 to 10 µM and 3 to 30 µM, respectively.
Taken in the same sequence, the figures for `O=C(N[C@H]1CCCC[C@H]2CC[C@@H](C(=O)N3C(=O)N(c4ccn(C(F)F)c(=O)c4)C(=O)C34CC4)N2C1=O)c1cc2cc(C(F)P(=O)(O)O)ccc2s1` (stereo partly drawn) [Compound 572, ((2-(((3S,6S,10aS)-3-(6-(1-(difluoromethyl)-2-oxo-1,2-dihydropyridin-4-yl)-5,7-dioxo-4,6-diazaspiro[2.4]heptane-4-carbonyl)-5-oxodecahydropyrrolo[1,2-a]azocin-6-yl)carbamoyl)benzo[b]thiophen-5-yl)fluoromethyl)phosphonic acid] were 1 to 10 µM and 0.3 to 3 µM.
Taken in the same sequence, the figures for `O=C(N[C@H]1CCCC[C@H]2CC[C@@H](C(=O)N3CC(N4CCS(=O)(=O)CC4)C3)N2C1=O)c1cc2cc(C(F)P(=O)(O)O)ccc2s1` (stereo partly drawn) [Compound 573, ((2-(((3S,6S,10aS)-3-(3-(1,1-dioxidothiomorpholino)azetidine-1-carbonyl)-5-oxodecahydropyrrolo[1,2-a]azocin-6-yl)carbamoyl)benzo[b]thiophen-5-yl)fluoromethyl)phosphonic acid] were 0.1 to 1 µM and 3 to 30 µM.
In the same order, the values of `O=C(N[C@H]1CCC[C@H]2CC[C@@H](C(=O)N3CC(c4cccnc4)C3)N2C1=O)c1cc2cc(CP(=O)(O)O)ncc2s1` [Compound 574, ((2-(((3S,6S,9aS)-5-oxo-3-(3-(pyridin-3-yl)azetidine-1-carbonyl)octahydro-1H-pyrrolo[1,2-a]azepin-6-yl)carbamoyl)thieno[2,3-c]pyridin-5-yl)methyl)phosphonic acid] are 1 to 10 µM and 3 to 30 µM.
With `CCc1ccncc1C1CN(C(=O)[C@@H]2CC[C@@H]3CCC[C@H](NC(=O)c4cn5cc(CP(=O)(O)O)ccc5n4)C(=O)N32)C1` [Compound 575, ((2-(((3S,6S,9aS)-3-(3-(4-ethylpyridin-3-yl)azetidine-1-carbonyl)-5-oxooctahydro-1H-pyrrolo[1,2-a]azepin-6-yl)carbamoyl)imidazo[1,2-a]pyridin-6-yl)methyl)phosphonic acid], the IC50 in experiment [1] is 1 to 10 µM; in experiment [2] it was 3 to 30 µM.
In the same order, the values of `CCc1ccncc1C1CN(C(=O)[C@@H]2CC[C@@H]3CCC[C@H](NC(=O)c4ccc5sc(CP(=O)(O)O)cc5c4)C(=O)N32)C1` [Compound 576, ((5-(((3S,6S,9aS)-3-(3-(4-ethylpyridin-3-yl)azetidine-1-carbonyl)-5-oxooctahydro-1H-pyrrolo[1,2-a]azepin-6-yl)carbamoyl)benzo[b]thiophen-2-yl)methyl)phosphonic acid] are 0.1 to 1 µM and 3 to 30 µM.
In the same order, the values of `COc1cc(F)ncc1C1CN(C(=O)[C@@H]2CC[C@@H]3CCC[C@H](NC(=O)c4cc5cc(CP(=O)(O)O)ccc5s4)C(=O)N32)C1` [Compound 577, ((2-(((3S,6S,9aS)-3-(3-(6-fluoro-4-methoxypyridin-3-yl)azetidine-1-carbonyl)-5-oxooctahydro-1H-pyrrolo[1,2-a]azepin-6-yl)carbamoyl)benzo[b]thiophen-5-yl)methyl)phosphonic acid] are 1 to 10 µM and 3 to 30 µM.
For the molecule `COc1ccnc(F)c1C1CN(C(=O)[C@@H]2CC[C@@H]3CCC[C@H](NC(=O)c4cc5cc(CP(=O)(O)O)ccc5s4)C(=O)N32)C1` [Compound 578, ((2-(((3S,6S,9aS)-3-(3-(2-fluoro-4-methoxypyridin-3-yl)azetidine-1-carbonyl)-5-oxooctahydro-1H-pyrrolo[1,2-a]azepin-6-yl)carbamoyl)benzo[b]thiophen-5-yl)methyl)phosphonic acid], the IC50 in experiment [1] was 1 to 10 µM; in experiment [2], 3 to 30 µM.
In the same order, the values of `O=C(N[C@H]1CCCC[C@H]2CC[C@@H](C(=O)N3CCC(c4ccccn4)CC3)N2C1=O)c1cc2cc(C(F)P(=O)(O)O)ccc2s1` (stereo partly drawn) [Compound 579, (fluoro(2-(((3S,6S,10aS)-5-oxo-3-(4-(pyridin-2-yl)piperidine-1-carbonyl)decahydropyrrolo[1,2-a]azocin-6-yl)carbamoyl)benzo[b]thiophen-5-yl)methyl)phosphonic acid] are 0.1 to 1 µM and 3 to 30 µM.
In the same order, the values of `Cc1nccc(F)c1C1CN(C(=O)[C@@H]2CC[C@@H]3CCC[C@H](NC(=O)c4cc5cc(CP(=O)(O)O)ccc5s4)C(=O)N32)C1` [Compound 580, ((2-(((3S,6S,9aS)-3-(3-(4-fluoro-2-methylpyridin-3-yl)azetidine-1-carbonyl)-5-oxooctahydro-1H-pyrrolo[1,2-a]azepin-6-yl)carbamoyl)benzo[b]thiophen-5-yl)methyl)phosphonic acid] are 1 to 10 µM and 3 to 30 µM.

By IC50 is commonly meant the point on the concentration scale where inhibition reaches its midpoint.

The values above are taken from patent publication US20250215029A1 (Recludix Pharma, Inc., priority 2022, published 2025).
